From patent US20100203175A1, “DEGLYCATION OF AGEs” (BASF BEAUTY CARE SOLUTIONS FRANCE S.A.S., priority 2007, published 2010)

molecular target: AGEs (bovine serum albumin (BSA) incubated with a reducing sugar) (Bos taurus, UniProt P02769); test: Reversion of the Maillard reaction: deglycation of AGEs prepared from bovine serum albumin and glucose, fluorescence read-out; type: biochemical; conditions: characterized molecules, in particular at 1×10^−1% in water or DMSO; about 50° C., 3 weeks; fluorescence with active principle versus positive control (15 mM aminoguanidine)
Sequence (P02769 25-607): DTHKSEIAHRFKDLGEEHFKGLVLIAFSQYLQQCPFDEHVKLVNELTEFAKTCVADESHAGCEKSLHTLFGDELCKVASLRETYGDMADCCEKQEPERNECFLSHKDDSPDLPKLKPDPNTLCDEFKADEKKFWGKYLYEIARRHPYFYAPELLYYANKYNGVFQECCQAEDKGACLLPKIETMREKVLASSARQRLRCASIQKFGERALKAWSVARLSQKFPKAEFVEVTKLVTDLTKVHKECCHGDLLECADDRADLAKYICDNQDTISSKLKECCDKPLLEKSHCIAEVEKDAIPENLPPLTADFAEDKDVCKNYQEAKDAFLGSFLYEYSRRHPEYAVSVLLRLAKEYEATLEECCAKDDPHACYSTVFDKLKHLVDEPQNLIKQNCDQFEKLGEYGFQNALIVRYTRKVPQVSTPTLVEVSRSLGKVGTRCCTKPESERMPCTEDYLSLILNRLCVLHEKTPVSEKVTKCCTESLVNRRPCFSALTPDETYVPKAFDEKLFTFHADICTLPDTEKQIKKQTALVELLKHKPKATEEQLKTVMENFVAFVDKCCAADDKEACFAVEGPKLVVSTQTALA
Procedure: The preparation of a solution containing a protein and a reducing sugar was carried out extemporaneously as follows: a solution of bovine serum albumin (BSA) at a concentration between 1.5 μM and 1.5M, preferably between 15 μM and 500 μM was incubated with a solution of a reducing sugar such as glucose, fructose, etc., preferably with glucose at a concentration between 0.1M and 10M and preferably between 0.5M and 5M.
The incubation was maintained between 1 and 5 weeks, and preferably for 3 weeks.
The measure of inhibition of the AGEs was carried out by measuring the fluorescence (excitation wavelength between 350 and 375 nm, preferably at 355 nm; emission wavelength between 420 and 450 nm, preferably at 430 nm). The reversion of the Maillard reaction was calculated by comparing the fluorescence of AGEs set at 100% (maximum fluorescence) with the fluorescence of AGEs+active agent tested.
The preparation of a protein/reducing sugar solution was carried out according to the method described in Example 1 (paragraph 1).
The preparation of a solution of protein/reducing sugar was carried out according to the method described in Example 1 (paragraph 1). […]

SMILES	% deglycation
COc1cc(C=CC(=O)O)cc(OC)c1O [3,5-Dimethoxy-4-hydroxycinnamic acid]	100%
CC(Cc1ccc(O)c(O)c1)C(C)Cc1ccc(O)c(O)c1 (centres unmarked) [Nordihydroguaiaretic acid]	100%
Oc1ccc2cc[nH]c2c1 [Indole alcohol amine II, 6-Hydroxyindole]	100%
O=C(O)C=Cc1ccc(O)c(O)c1 [3,4-Dihydroxycinnamic acid]	88%
O=C(O)Cc1ccc(O)c(O)c1 [3,4-Dihydroxyphenylacetic acid (DOPAC), 3,4-Dihydroxyphenylacetic acid]	100%
CNC(=O)Oc1ccc2c(c1)[C@]1(C)CCN(C)[C@@H]1N2C [Physostigmine]	87%
Oc1cc(O)cc(O)c1 [1,3,5-Trihydroxybenzene (phloroglucinol), 1,3,5-Trihydroxybenzene]	100%
O=C1Cc2ccccc2N1 [Oxindole]	100%
Cc1cc(C)c2c(c1O)C(=O)OC2 [7-Hydroxy-4,6-dimethyl phthalide]	100%
Cc1cn2c(=O)c3ccccc3nc2n2c(=O)c3ccccc3nc12 [6-Methyl-5,7a,13,13b-tetraazapentaphene-8,14-dione]	100%
Nc1ccc(O)cc1 [4-Aminophenol]	100%
Oc1cc(O)c2c(c1)O[C@@H](c1ccc(O)c(O)c1)[C@H](O)C2 (relative stereo) [trans-3,3′,4′,5,7-Pentahydroxyflavane]	100%
O=c1cc(CO)occ1O [2-Hydroxymethyl-5-hydroxy-γ-pyrone]	97%
Cc1c(C)c2c(c(C)c1O)CCC(C)(C(=O)O)O2 (centres unmarked) [6-Hydroxy-2,5,7,8-tetramethylchromane-2-carboxylic acid]	100%
